In patent US20230126391A1, “ALPHA-METHYL-SUBSTITUTED DIAZABICYCLO[4.3.1] DECANE DERIVATIVES FOR TREATMENT OF PSYCHIATRIC DISORDERS” (priority 2020, published 2023):

Tests used:
FKBP12 [1] = target: T1, FKBP12 (Homo sapiens, UniProt P62942); test: Binding affinity of ligands with large RA (E3-ligase CRBN, PEG linker); conditions: * = detection limit
Description: (§1) Further example of a diazabicyclo[4.3.1]decane with a large, bulky substituent in RA. The n corresponds to a varying PEG-linker length of 1-5. All tested ligands with a S-methyl group display increased binding affinity to the tested FKBPs while all R-isomers display decreased binding affinity as shown in the table below. In all cases, the addition of the methyl group in S-configuration increases the affinity to all measured FKBPs substantially.

FKBP12.6 [2] = target: T2, FKBP12.6 (Homo sapiens, UniProt P68106); test: as above; conditions: * = detection limit
T2 sequence (P68106 whole entry): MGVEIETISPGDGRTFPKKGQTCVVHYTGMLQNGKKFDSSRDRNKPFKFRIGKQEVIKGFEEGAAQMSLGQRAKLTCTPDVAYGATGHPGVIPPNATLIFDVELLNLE
Description: as §1

FKBP51FK1 = target: T3, FKBP51FK1 (Homo sapiens, UniProt Q13451); test: as above
T3 construct: FKBP51FK1
T3 sequence (Q13451 42-130 limits assumed): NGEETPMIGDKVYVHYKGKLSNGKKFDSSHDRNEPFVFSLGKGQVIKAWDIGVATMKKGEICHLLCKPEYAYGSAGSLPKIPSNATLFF
Description: as §1

FKBP52FK1 = target: T4, FKBP52FK1 (Homo sapiens, UniProt Q02790); test: as above
T4 construct: FKBP52FK1
T4 sequence (Q02790 50-138 limits assumed): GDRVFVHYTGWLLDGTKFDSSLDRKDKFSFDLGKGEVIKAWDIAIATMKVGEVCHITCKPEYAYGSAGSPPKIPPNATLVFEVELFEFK
Description: as §1

FKBP12 [3] = target: T1, FKBP12; test: FP assay, binding to human FKBPs (Table 1); conditions: fluorescence polarization assay
FKBP12.6 [4] = target: T2, FKBP12.6; test: FP assay, binding to human FKBPs (Table 1); conditions: fluorescence polarization assay
FKBP51 = target: T5, FKBP51 (Homo sapiens, UniProt Q13451); test: FP assay, binding to human FKBPs (Table 1); conditions: fluorescence polarization assay
T5 sequence (Q13451 1-457): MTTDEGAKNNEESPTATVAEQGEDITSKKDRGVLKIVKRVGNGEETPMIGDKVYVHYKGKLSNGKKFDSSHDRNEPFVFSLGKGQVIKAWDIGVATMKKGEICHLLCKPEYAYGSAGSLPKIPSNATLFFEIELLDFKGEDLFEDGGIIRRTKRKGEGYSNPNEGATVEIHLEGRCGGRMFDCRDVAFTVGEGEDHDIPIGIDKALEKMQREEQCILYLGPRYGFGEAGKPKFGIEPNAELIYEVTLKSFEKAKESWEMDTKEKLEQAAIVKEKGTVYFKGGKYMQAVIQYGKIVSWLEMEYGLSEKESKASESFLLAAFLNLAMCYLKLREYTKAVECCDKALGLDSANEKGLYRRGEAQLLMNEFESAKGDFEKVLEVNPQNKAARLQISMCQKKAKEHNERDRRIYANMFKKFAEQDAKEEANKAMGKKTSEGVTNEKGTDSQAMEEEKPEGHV

FKBP52 = target: T6, FKBP52 (Homo sapiens, UniProt Q02790); test: FP assay, binding to human FKBPs (Table 1); conditions: fluorescence polarization assay
T6 sequence (Q02790 1-459): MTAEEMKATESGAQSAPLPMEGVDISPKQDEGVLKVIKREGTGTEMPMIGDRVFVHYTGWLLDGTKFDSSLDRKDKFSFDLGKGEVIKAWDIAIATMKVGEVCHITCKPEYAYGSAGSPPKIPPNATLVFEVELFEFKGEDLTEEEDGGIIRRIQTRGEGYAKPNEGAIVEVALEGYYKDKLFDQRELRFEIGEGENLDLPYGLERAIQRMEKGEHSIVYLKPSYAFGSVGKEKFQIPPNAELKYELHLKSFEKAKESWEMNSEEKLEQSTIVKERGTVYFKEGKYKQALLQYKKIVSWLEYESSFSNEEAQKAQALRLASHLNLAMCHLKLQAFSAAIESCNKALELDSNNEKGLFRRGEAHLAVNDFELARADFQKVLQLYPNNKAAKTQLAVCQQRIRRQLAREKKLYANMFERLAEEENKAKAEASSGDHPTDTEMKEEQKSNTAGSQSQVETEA

LpMip = LpMip (Legionella pneumophila subsp. pneumophila, UniProt Q5ZXE0); test: biochemical; type: binding; conditions: read-out: Ki LpMip
Chain of LpMip (Q5ZXE0 21-233 limits assumed): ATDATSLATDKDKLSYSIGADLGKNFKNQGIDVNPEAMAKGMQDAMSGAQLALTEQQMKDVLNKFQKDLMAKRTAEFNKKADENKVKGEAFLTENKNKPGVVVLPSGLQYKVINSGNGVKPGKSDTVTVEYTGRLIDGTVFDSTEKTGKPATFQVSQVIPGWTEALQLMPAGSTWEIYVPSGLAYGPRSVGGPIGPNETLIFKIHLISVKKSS

T1 sequence (P62942 whole entry): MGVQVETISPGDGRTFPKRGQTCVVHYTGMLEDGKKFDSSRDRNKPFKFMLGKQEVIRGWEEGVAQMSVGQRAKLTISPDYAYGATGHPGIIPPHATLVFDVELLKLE

| SMILES | Ki (FKBP12 [1]) [nM] | Ki (FKBP12.6 [2]) [nM] | Ki (FKBP51FK1) [nM] | Ki (FKBP52FK1) [nM] | Ki (FKBP12 [3]) [nM] | Ki (FKBP12.6 [4]) [nM] | Ki (FKBP51) [nM] | Ki (FKBP52) [nM] | Ki (LpMip) [nM] |
| --- | --- | --- | --- | --- | --- | --- | --- | --- | --- |
| C=C[C@H]1CN(Cc2cn(CCOCCOCC(=O)Nc3cccc4c3C(=O)N(C3CCC(=O)NC3=O)C4=O)nn2)C(=O)[C@@H]2CCC[C@H]1N2S(=O)(=O)c1cc(Cl)cc(Cl)c1 (stereo partly shown) [MTQ504] | 2.1 ± 0.2 | 17 ± 1.3 | 25 ± 6 | 43 ± 11 | – | – | – | – | – |
| C=C[C@H]1CN([C@@H](C)c2cn(CCOCCOCCOCCOCC(=O)Nc3cccc4c3C(=O)N(C3CCC(=O)NC3=O)C4=O)nn2)C(=O)[C@@H]2CCC[C@H]1N2S(=O)(=O)c1cc(Cl)cc(Cl)c1 (stereo partly shown) [MTQ516] | 0.5 ± 0.1 | 3.7 ± 0.5 | 4.2 ± 0.8 | 8.4 ± 2.3 | – | – | – | – | – |
| C=C[C@H]1CN([C@@H](C)c2cn(CCOCCOCCOCC(=O)Nc3cccc4c3C(=O)N(C3CCC(=O)NC3=O)C4=O)nn2)C(=O)[C@@H]2CCC[C@H]1N2S(=O)(=O)c1cc(Cl)cc(Cl)c1 (stereo partly shown) [MTQ515] | 0.5 ± 0.1 | 4.8 ± 0.5 | 3.2 ± 0.9 | 5 ± 1.2 | – | – | – | – | – |
| C=C[C@H]1CN(Cc2cn(CCOCCOCCOCC(=O)Nc3cccc4c3C(=O)N(C3CCC(=O)NC3=O)C4=O)nn2)C(=O)[C@@H]2CCC[C@H]1N2S(=O)(=O)c1cc(Cl)cc(Cl)c1 (stereo partly shown) [MTQ505] | 2.4 ± 0.2 | 21 ± 2 | 17 ± 4 | 16 ± 5 | – | – | – | – | – |
| C=C[C@H]1CN([C@@H](C)c2cn(CCOCC(=O)Nc3cccc4c3C(=O)N(C3CCC(=O)NC3=O)C4=O)nn2)C(=O)[C@@H]2CCC[C@H]1N2S(=O)(=O)c1cc(Cl)cc(Cl)c1 (stereo partly shown) [MTQ513] | 0.2 ± 0.02 | 0.41 ± 0.2 | 2.3 ± 0.4 | 0.7 ± 0.3 | – | – | – | – | – |
| C=C[C@H]1CN(Cc2cn(CCOCC(=O)Nc3cccc4c3C(=O)N(C3CCC(=O)NC3=O)C4=O)nn2)C(=O)[C@@H]2CCC[C@H]1N2S(=O)(=O)c1cc(Cl)cc(Cl)c1 (stereo partly shown) [MTQ503] | 0.2 ± 0.03 | 0.46 ± 0.1 | 8 ± 1 | 1.9 ± 0.5 | – | – | – | – | – |
| C=C[C@H]1CN([C@@H](C)c2cn(CCOCCOCCOCCOCCOCC(=O)Nc3cccc4c3C(=O)N(C3CCC(=O)NC3=O)C4=O)nn2)C(=O)[C@@H]2CCC[C@H]1N2S(=O)(=O)c1cc(Cl)cc(Cl)c1 (stereo partly shown) [MTQ517] | 0.4 ± 0.05 | 1.5 ± 0.3 | 2.1 ± 0.4 | 4.9 ± 1.1 | – | – | – | – | – |
| O=C1[C@@H]2CCC[C@H]([C@@H](CO)CN1Cc1ccccn1)N2S(=O)(=O)c1cc(Cl)cc(Cl)c1 [23a] | – | – | – | – | 0.35 | 3.4 | 33 | 19 | 467 |
| C=C[C@H]1CN(Cc2cn(CCOCCOCCOCCOCCOCC(=O)Nc3cccc4c3C(=O)N(C3CCC(=O)NC3=O)C4=O)nn2)C(=O)[C@@H]2CCC[C@H]1N2S(=O)(=O)c1cc(Cl)cc(Cl)c1 (stereo partly shown) [MTQ507] | 0.7 ± 0.1 | 10 ± 1.2 | 12 ± 2 | 60 ± 12 | – | – | – | – | – |
| C=C[C@H]1CN(Cc2ccccn2)C(=O)[C@@H]2CCC[C@H]1N2S(=O)(=O)c1cc(Cl)cc(Cl)c1 [6a] | – | – | – | – | 1.3 | 17 | 119 | 54 | 1350 |
| C=C[C@H]1CN(Cc2cn(CCOCCOCCOCCOCC(=O)Nc3cccc4c3C(=O)N(C3CCC(=O)NC3=O)C4=O)nn2)C(=O)[C@@H]2CCC[C@H]1N2S(=O)(=O)c1cc(Cl)cc(Cl)c1 (stereo partly shown) [MTQ506] | 1.5 ± 0.2 | 19 ± 2 | 28 ± 5 | 30 ± 8 | – | – | – | – | – |
| CC[C@H]1CN(Cc2ccccn2)C(=O)[C@@H]2CCC[C@H]1N2S(=O)(=O)c1ccc2ncsc2c1 [26a] | – | – | – | – | 6.5 | 5.2 | 410 | 285 | 5150 |
| C=C[C@H]1CN([C@@H](C)c2cn(CCOCCOCC(=O)Nc3cccc4c3C(=O)N(C3CCC(=O)NC3=O)C4=O)nn2)C(=O)[C@@H]2CCC[C@H]1N2S(=O)(=O)c1cc(Cl)cc(Cl)c1 (stereo partly shown) [MTQ514] | 0.4 ± 0.1 | 2.4 ± 0.4 | 4.4 ± 1.2 | 5.7 ± 1.7 | – | – | – | – | – |
